{"source": "patent US11000537B2", "about": "“Composition comprising novel ginsenoside” (AMOREPACIFIC CORPORATION, priority 2018, dated 2021)", "assay_type_in_all_cases": "cell-based", "key": {"3T1-L1 adipocytes": {"test_system": "3T1-L1 adipocytes", "experiment": "glucose uptake (glucose transport) in differentiated adipocytes", "conditions": "10 μM, FIG. 13", "protocol": "3T1-L1 adipocytes (ATCC) were purchased, and 10% bovine calf serum (Hyclone) and 1% penicillin/streptomycin (Sigma) were added to a Dulbecco's Modified Eagle's Medium (Sigma) and cultured in a 5% CO2 culture medium. In order to differentiate preadipocyte cells into adipocytes, a culture plate was filled with cells and cultured for 48 hours. The cells were then replaced in a DMEM medium to which 10% fetal bovine serum (FBS) (Hyclone), 0.5 mM 3-isobutyl-1-methylxanthine (Sigma), 1 μM dexamethasone (Sigma), 5 μg/ml insulin (Sigma), and 1% penicillin/streptomycin were added and cultured for another 48 hours. Thereafter, the cells were further cultured for 14 days while being replaced in a medium containing 10% FBS, 5 μg/ml insulin, and 1% penicillin/streptomycin at two-day intervals to obtain fully differentiated adipocytes. […] As a positive control for measuring glucose uptake in blood, Metformin (Sigma; 10 μM), which is used as a diabetic therapeutic agent, was used, and novel ginsenoside GS #10, which is an example of the present disclosure, isolated from Ginseng seed extract and ginsenosides GS #01-GS #06, which are comparative examples of the present disclosure, were treated with 10 μM each. In addition, both insulin-dependent/independent glucose transport capacity was measured by treating insulin together, which may promote glucose uptake."}, "[1]": {"test_system": "SREBP1c (sterol-regulatory element binding protein 1c)", "experiment": "SREBP1c gene expression in HepG2 (qPCR)", "conditions": "24 hours", "protocol": "The hepatocyte cell line HepG2 purchased from the International Center for Biological Resources (ATCC) were placed in Dulbecco's Modified Eagle's Medium (Sigma) to which 10% fetal bovine serum (Hyclone) and 1% penicillin/streptomycin (Sigma) were added, and cultured in a 5% CO2 incubator. […] After 24 hours of treatment, cells were collected, RNA was extracted using Trizol™ reagent (Thermo Fisher Scientific), and cDNA was synthesized using RevertAid™ 1st strand cDNA synthesis kit (Thermo Fisher Scientific). Bio-Rad's CFX96 real-time quantitative PCR (qPCR) instrument was used to observe the expression of the genes SREBP1c (sterol-regulatory element binding protein 1c), ACC (acetyl-CoA carboxylase) and FAS (Fatty acid synthase), which induces fat synthesis or accumulation."}, "HepG2 cells": {"test_system": "HepG2 cells", "experiment": "triglyceride accumulation in hepatocytes (Triglyceride Assay Kit)", "text": "In addition, in order to investigate whether inhibition of the expression of fat synthesis-related genes by ginsenoside derived from Ginseng seed may be involved in actual fat synthesis and accumulation, HepG2 cells were used to treat seven ginsenosides (GS #01-GS #06, GS #10; […]) and the control group (fenofibrate, FF) in the same manner as above, and then the Triglyceride Assay Kit (Abcam) was used to measure the amount of triglyceride (TG) accumulated in hepatocytes."}, "[2]": {"test_system": "HMG-CoA (3-hydroxy-3-methyl-glutaryl-coenzyme A) reductase", "experiment": "HMG-CoA reductase gene expression in HepG2 (qPCR)", "conditions": "24 hours"}, "SREBP1a": {"test_system": "SREBP1a", "experiment": "SREBP1a gene expression in HepG2 (qPCR)", "conditions": "10 μM, 24 hours, FIG. 30", "protocol": "The hepatocyte cell line HepG2 purchased from the International Center for Biological Resources (ATCC) were placed in Dulbecco's Modified Eagle's Medium (Sigma) to which 10% fetal bovine serum (Hyclone) and 1% penicillin/streptomycin (Sigma) were added, and cultured in a 5% CO2 incubator. As a positive control, Simvastatin (Sigma Aldrich; St. Louis, Mo.), which is known as a lipid lowering agent of the HMG-CoA reductase inhibitor family and reduces cholesterol production in the blood, was used. For the experiment, seven types of ginsenoside (GS #01-GS #06, GS #10; 10 μM each) extracted from Ginseng seeds were treated for 24 hours, and the cells were collected. RNA was extracted using Trizol™ reagent (Thermo Fisher Scientific) and cDNA was synthesized using RevertAid™ 1st strand cDNA synthesis kit (Thermo Fisher Scientific). Bio-Rad's CFX96 real-time quantitative PCR (qPCR) instrument was used to observe the expression of HMG-CoA (3-hydroxy-3-methyl-glutaryl-coenzyme A) reductase, a key gene for cholesterol synthesis. In the same way, LDL (low-density lipoprotein) was absorbed into cells, and the expression of LDL receptor (LDLR), which serves to lower blood cholesterol levels, was observed.\nLDLR is controlled by the SREBP1a gene. […]"}, "[3]": {"test_system": "aP2 (Adipocyte protein 2)", "experiment": "aP2 adipocyte marker gene expression (qPCR)", "protocol": "The adipocyte cell 3T3-L1 purchased from the International Center for Biological Resources (ATCC) were placed in Dulbecco's Modified Eagle's Medium (Sigma) to which 10% fetal bovine serum (Hyclone) and 1% penicillin/streptomycin (Sigma) were added, and cultured in a 5% CO2 incubator. In order to differentiate preadipocytes into adipocytes, the cells were filled in a culture plate and cultured. After 48 hours, the cells were replaced with Dulbecco's modified eagle medium (DMEM) to which 10% of fetal bovine serum (Hyclone), 0.5 mM of 3-isobutyl-1-methylxanthine (Sigma), 1 μM of dexamethasone (Sigma), 5 μg/ml of insulin (Sigma), 1% of penicillin/streptomycin (Sigma) were added and further cultured for 48 hours. During 48 hours of culture, seven types of ginsenoside reagents (GS #01-GS #06, GS #10) extracted from Ginseng seeds were treated at 10 μM each to affect adipocyte differentiation. […]\nAfter the differentiation of adipocytes in the same manner as above, the expressions of PPARγ (Peroxisome proliferator-activated receptor gamma), aP2 (Adipocyte protein 2) and CD36 were observed as adipocyte marker genes. […] Bio-Rad's CFX96 real-time quantitative PCR (qPCR) instrument was used to quantify the expression levels of each gene. […]"}}, "data": [{"molecule": "CC1(C)C(=O)CC[C@@]2(C)C1[C@@H](O[C@H]1OC(CO)[C@H](O)C(O)C1O[C@H]1OC(CO)[C@H](O)C(O)C1O)C[C@]1(C)C2C[C@@H](O)C2C([C@]3(C)CC[C@H](C(C)(C)O)O3)CC[C@]21C", "note": "(stereo partly drawn) [GS #10, (20S,24R)-6-O-β-D-glucopyranosyl(1→2)-β-D-glucopyranoside-dammar-3-one-20,24-epoxy-6a,12b,25-triol]", "values": [{"measurement": "glucose transport promotion", "setting": "3T1-L1 adipocytes; combined with insulin (+insulin)", "value": "the glucose transport is further increased as compared with the insulin-only treatment group"}, {"measurement": "glucose transport promotion", "setting": "3T1-L1 adipocytes; material-only treatment (−insulin)", "value": "statistically significant glucose transport promotion"}, {"measurement": "SREBP1c expression inhibitory effect", "setting": "[1]; 10 μM, HepG2, FIG. 18", "value": "significantly higher expression inhibitory effect"}, {"measurement": "SREBP1c expression inhibitory effect", "setting": "[1]; 1, 10 μM, compared with Rg1, Rg3, Rb1, FIG. 23", "value": "far superior in lipid metabolism inhibitory effect"}, {"measurement": "inhibitory effect of lipid (triglyceride) accumulation in hepatocytes", "setting": "HepG2 cells; 10 μM, HepG2, FIG. 21", "value": "most excellent inhibitory effect of lipid accumulation in hepatocytes"}, {"measurement": "inhibition of triglyceride accumulated in hepatocytes", "setting": "HepG2 cells; 1, 10 μM, compared with Rg1, Rg3, Rb1, FIG. 26", "value": "far superior in lipid metabolism inhibitory effect"}, {"measurement": "expression of HMG-CoA reductase", "setting": "[2]; 10 μM, HepG2, FIG. 28", "value": "most excellent efficacy of inhibiting the expression"}, {"measurement": "inhibition of cholesterol synthesis (HMG-CoA reductase expression)", "setting": "[2]; 1 and 10 μM, compared with Rg1, Rg3, Rb1, FIG. 31", "value": "most effective in inhibiting cholesterol synthesis"}, {"measurement": "expression of SREBP1a", "setting": "SREBP1a", "value": "did not inhibit the expression of SREBP1a but rather tended to increase the expression thereof"}, {"measurement": "adipocyte differentiation inhibition, aP2 gene expression", "setting": "[3]; 1 μM and 10 μM, compared with Rg1, Rg3, Rb1, FIG. 40", "value": "far superior in adipocyte differentiation inhibition"}, {"measurement": "adipocyte differentiation inhibition, aP2 gene expression", "setting": "[3]; 10 μM, FIG. 36", "value": "more effective in inhibiting the adipocyte differentiation"}]}]}
